Measurements as given in ChEMBL document CHEMBL1201862, “PubChem BioAssay data set” (2004).
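Compound exposure: 48 hours, 5 concentrations, 96-well plates. GI50 marks 50% less growth.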 Activity calls are given as the source filed them. Rule as the data show it: active = GI50 up to about 1.1 µM and inactive = higher.

What was measured:
Test in all cases: DTP human tumour cell line panel, 48 h
UACC-257 = tested on: UACC-257
NCI-H522 = tested on: NCI-H522
HOP-62 = tested on: HOP-62
SF-268 = tested on: SF-268
SK-OV-3 = tested on: SK-OV-3
M19-MEL = tested on: M19-MEL
RXF 393 = tested on: RXF 393
HCC 2998 = tested on: HCC 2998
UACC-62 = tested on: UACC-62
NCI-H23 = tested on: NCI-H23
HCT-15 = tested on: HCT-15
RPMI-8226 = tested on: RPMI-8226
DLD-1 = tested on: DLD-1
SF-295 = tested on: SF-295
XF498 = tested on: XF498
HOP-92 = tested on: HOP-92
DMS-114 = tested on: DMS-114
KM12 = tested on: KM12
SN12C = tested on: SN12C
NCI-H460 = tested on: NCI-H460
M14 = tested on: M14
OVCAR-5 = tested on: OVCAR-5
COLO 205 = tested on: COLO 205
DMS-273 = tested on: DMS-273
CAKI-1 = tested on: CAKI-1
TK-10 = tested on: TK-10
ACHN = tested on: ACHN
OVCAR-8 = tested on: OVCAR-8
LXFL 529 = tested on: LXFL 529
SK-MEL-5 = tested on: SK-MEL-5
HT-29 = tested on: HT-29
LOX IMVI = tested on: LOX IMVI
OVCAR-3 = tested on: OVCAR-3
SW-620 = tested on: SW-620
CCRF-CEM = tested on: CCRF-CEM
UO-31 = tested on: UO-31
HCT-116 = tested on: HCT-116
U-251 = tested on: U-251
SNB-75 = tested on: SNB-75
SF-539 = tested on: SF-539
786-0 = tested on: 786-0
NCI-H226 = tested on: NCI-H226
OVCAR-4 = tested on: OVCAR-4
SK-MEL-28 = tested on: SK-MEL-28
KM-20L2 = tested on: KM-20L2
Malme-3M = tested on: Malme-3M
SNB-78 = tested on: SNB-78
SNB-19 = tested on: SNB-19
A549 = tested on: A549
IGROV-1 = tested on: IGROV-1
SK-MEL-2 = tested on: SK-MEL-2
EKVX = tested on: EKVX
HOP-18 = tested on: HOP-18
MOLT-4 = tested on: MOLT-4
A498 = tested on: A498
K562 = tested on: K562

Measured: GI50

COC(=O)OCC1OC(N2C(=O)NC(=O)C(Br)C2N=[N+]=[N-])CC1OC(=O)OC (centres undefined)
inactive: UACC-257 > 100 µM | NCI-H522 66.4 µM | HOP-62 > 100 µM | SF-268 > 100 µM | SK-OV-3 > 100 µM | M19-MEL > 100 µM | RXF 393 > 100 µM | HCC 2998 > 100 µM | UACC-62 > 100 µM | NCI-H23 > 100 µM | RPMI-8226 > 100 µM | DLD-1 > 100 µM | SF-295 > 100 µM | XF498 > 100 µM | HOP-92 > 100 µM | DMS-114 > 100 µM | KM12 > 100 µM | SN12C > 100 µM | NCI-H460 > 100 µM | M14 > 100 µM | OVCAR-5 > 100 µM | COLO 205 > 100 µM | DMS-273 > 100 µM | CAKI-1 > 100 µM | TK-10 > 100 µM | ACHN > 100 µM | OVCAR-8 > 100 µM | LXFL 529 > 100 µM | SK-MEL-5 > 100 µM | HT-29 > 100 µM | LOX IMVI > 100 µM | OVCAR-3 > 100 µM | SW-620 > 100 µM | CCRF-CEM > 100 µM | UO-31 > 100 µM | HCT-116 > 100 µM | U-251 > 100 µM | SNB-75 > 100 µM | SF-539 > 100 µM | 786-0 > 100 µM | NCI-H226 > 100 µM | OVCAR-4 > 100 µM | SK-MEL-28 > 100 µM | KM-20L2 > 100 µM | Malme-3M > 100 µM | SNB-78 > 100 µM | SNB-19 > 100 µM | A549 > 100 µM | IGROV-1 > 100 µM
> 100 µM: HCT-15

N=S(c1ccccc1[N+](=O)[O-])c1ccccc1[N+](=O)[O-]
1.62 µM: HCT-15
inactive: UACC-257 2.54 µM | HOP-62 5.96 µM | SK-MEL-2 4.84 µM | SF-268 2.37 µM | EKVX 7.73 µM | HOP-18 5.3 µM | SK-OV-3 6.27 µM | M19-MEL 2.43 µM | RXF 393 4.06 µM | HCC 2998 5.32 µM | MOLT-4 2.61 µM | UACC-62 4.34 µM | NCI-H23 5.26 µM | RPMI-8226 2.08 µM | HOP-92 1.98 µM | KM12 6.65 µM | SN12C 1.72 µM | M14 2.09 µM | OVCAR-5 6.08 µM | COLO 205 1.95 µM | DMS-273 3.05 µM | CAKI-1 3.3 µM | TK-10 2.69 µM | ACHN 1.77 µM | OVCAR-8 3.65 µM | LXFL 529 2.22 µM | SK-MEL-5 3.2 µM | OVCAR-3 1.5 µM | A498 16.6 µM | UO-31 3.08 µM | HCT-116 1.5 µM | SNB-75 6.34 µM | SF-539 4.58 µM | 786-0 1.95 µM | NCI-H226 5.6 µM | SK-MEL-28 3.7 µM | Malme-3M 3.26 µM | SNB-78 2.52 µM | SNB-19 8.07 µM | A549 6.67 µM | IGROV-1 2.34 µM
active: NCI-H522 0.561 µM | LOX IMVI 0.944 µM | CCRF-CEM 0.687 µM | OVCAR-4 0.553 µM

COc1cc(C2c3cc4c(cc3[C@@H](NCCN3CCOCC3)C3COC(=O)[C@H]23)OCO4)cc(OC)c1O (some centres undefined)
inactive: UACC-257 4.4 µM | NCI-H522 3.16 µM | SK-MEL-2 4.89 µM | SF-268 2.06 µM | EKVX 16.4 µM | HOP-18 4.52 µM | RXF 393 2.9 µM | HCC 2998 2.44 µM | UACC-62 2.09 µM | DLD-1 5.45 µM | SF-295 2.49 µM | HOP-92 1.31 µM | KM12 4.01 µM | M14 3.98 µM | K562 3.01 µM | CAKI-1 2.08 µM | TK-10 5.56 µM | OVCAR-8 3.05 µM | LXFL 529 > 17.5 µM | HT-29 5.73 µM | LOX IMVI 1.77 µM | OVCAR-3 4.13 µM | SW-620 2.08 µM | UO-31 2.94 µM | HCT-116 2.86 µM | U-251 1.26 µM | 786-0 2.1 µM | OVCAR-4 > 17.5 µM | SK-MEL-28 3.66 µM | KM-20L2 5.2 µM | Malme-3M 3.76 µM | SNB-78 > 17.5 µM | SNB-19 4.89 µM | IGROV-1 5.52 µM
2.81 µM: HCT-15
active: HOP-62 0.782 µM | DMS-273 0.805 µM | SF-539 0.993 µM
